This experiment deals with HIV-IIIb. Briefly: Antiviral assay in MT4 cells. The class given is cell-based. Conditions: Human immunodeficiency virus 1, MT4, 120 h; MT-4 cells mixed with HIV-IIIb at m.o.i. 0.003; 5 days at 37° C.; CellTiter-Glo luminescence; 50% decrease in signal, a measure of HIV-1 replication. Summed up:
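Compound, tested at ten 3-fold dilutions in quadruplicate in 10% FBS medium, received MT-4 cells pre-mixed 1 hour with HIV-IIIb (m.o.i. 0.003). Protection was read as luminescent cell viability (CellTiter-Glo) after 5 days' culture at 37° C.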
For `Cn1nc(NS(C)(=O)=O)c2cccc(-c3cc4sc(N5CCC(C)(C(N)=O)CC5)nc4nc3C(Cc3cc(F)cc(F)c3)NC(=O)Cn3nc(C(F)(F)F)c4c3C(F)(F)[C@@H]3C[C@H]43)c21` (stereo partly drawn) [Example 127, 1-(5-(1-(2-((3bS,4aR)-5,5-difluoro-3-(trifluoromethyl)-3b,4,4a,5-tetrahydro-TH-cyclopropa[3,4]cyclopenta[1,2-c]pyrazol-1-yl)acetamido)-2-(3,5-difluorophenyl)ethyl)-6-(1-methyl-3-(methylsulfonamido)-1H-indazol-7-yl)thiazolo[4,5-b]pyridin-2-yl)-4-methylpiperidine-4-carboxamide], it took 31.9 nM to reach a half-maximal effect (EC50).

Turning to `CN(C)C1CN(c2nc3nc([C@H](Cc4cc(F)cc(F)c4)NC(=O)Cn4nc(C(F)(F)F)c5c4C(F)(F)[C@@H]4C[C@H]54)c(-c4cccc5c(NS(C)(=O)=O)nn(C)c45)cc3s2)C1` [Compound 150, 2-((3bS,4aR)-5,5-difluoro-3-(trifluoromethyl)-3b,4,4a,5-tetrahydro-1H-cyclopropa[3,4]cyclopenta[1,2-c]pyrazol-1-yl)-N—((S)-2-(3,5-difluorophenyl)-1-(2-(3-(dimethylamino)azetidin-1-yl)-6-(1-methyl-3-(methylsulfonamido)-1H-indazol-7-yl)thiazolo[4,5-b]pyridin-5-yl)ethyl)acetamide], the EC50 was determined as 8 nM.

The compound `NC(=O)c1cc(-c2cc3sc(N4CCOCC4)nc3nc2C(Cc2cc(F)cc(F)c2)NC(=O)Cn2nc(C(F)F)c3c2C(F)(F)CCC3(F)F)ccc1F` (stereo not drawn) [Compound 18, 5-(5-(1-(2-(3-(difluoromethyl)-4,4,7,7-tetrafluoro-4,5,6,7-tetrahydro-1H-indazol-1-yl)acetamido)-2-(3,5-difluorophenyl)ethyl)-2-morpholinothiazolo[4,5-b]pyridin-6-yl)-2-fluorobenzamide] came in with an EC50 of 254 nM.

On to `COCc1nc2nc([C@H](Cc3cc(F)cc(F)c3)NC(=O)Cn3nc(C(F)F)c4c3C(F)(F)[C@@H]3C[C@H]43)c(-c3ccc(Cl)c4c(N)nn(C)c34)cc2[nH]1` [Example 103, N—((S)-1-(6-(3-amino-4-chloro-1-methyl-1H-indazol-7-yl)-2-(methoxymethyl)-1H-imidazo[4,5-b]pyridin-5-yl)-2-(3,5-difluorophenyl)ethyl)-2-((3bS,4aR)-3-(difluoromethyl)-5,5-difluoro-3b,4,4a,5-tetrahydro-1H-cyclopropa[3,4]cyclopenta[1,2-c]pyrazol-1-yl)acetamide], for which the 50% effective concentration (EC50) amounted to 5.9 nM. Compared with the last compound, the EC50 is about 43-fold lower.

The compound `Cn1nc(NS(C)(=O)=O)c2cccc(-c3cc4sc(N5CCNC(=O)C5)nc4nc3[C@H](Cc3cc(F)cc(F)c3)NC(=O)Cn3nc(C(F)(F)F)c4c3C(F)(F)[C@@H]3C[C@H]43)c21` [Example 72, 2-((3bS,4aR)-5,5-difluoro-3-(trifluoromethyl)-3b,4,4a,5-tetrahydro-1H-cyclopropa[3,4]cyclopenta[1,2-c]pyrazol-1-yl)-N—((S)-2-(3,5-difluorophenyl)-1-(6-(1-methyl-3-(methylsulfonamido)-1H-indazol-7-yl)-2-(3-oxopiperazin-1-yl)thiazolo[4,5-b]pyridin-5-yl)ethyl)acetamide] displayed an EC50 of 32 nM.

`Cn1nc(NS(C)(=O)=O)c2cccc(-c3cc4sc(NCC(C)(C)O)nc4nc3[C@H](Cc3cc(F)cc(F)c3)NC(=O)Cn3nc(C(F)(F)F)c4c3C(F)(F)[C@@H]3C[C@H]43)c21` [Compound 52, 2-((3bS,4aR)-5,5-difluoro-3-(trifluoromethyl)-3b,4,4a,5-tetrahydro-1H-cyclopropa[3,4]cyclopenta[1,2-c]pyrazol-1-yl)-N—((S)-2-(3,5-difluorophenyl)-1-(2-((2-hydroxy-2-methylpropyl)amino)-6-(1-methyl-3-(methylsulfonamido)-1H-indazol-7-yl)thiazolo[4,5-b]pyridin-5-yl)ethyl)acetamide] gave a half-maximal effective concentration (EC50) of 9.6 nM.

`NC(=O)c1cc(-c2cc3sc(N4CC5(COC5)C4)nc3nc2[C@H](Cc2cc(F)cc(F)c2)NC(=O)Cn2nc(C(F)F)c3c2C(F)(F)CCC3(F)F)ccc1F` [Compound 13, (S)-5-(5-(1-(2-(3-(difluoromethyl)-4,4,7,7-tetrafluoro-4,5,6,7-tetrahydro-TH-indazol-1-yl)acetamido)-2-(3,5-difluorophenyl)ethyl)-2-(2-oxa-6-azaspiro[3.3]heptan-6-yl)thiazolo[4,5-b]pyridin-6-yl)-2-fluorobenzamide]: the EC50 worked out at 126 nM. Compared with the last compound, the EC50 is about 13-fold higher.

In the case of `CSc1nc2nc([C@H](Cc3cc(F)cc(F)c3)NC(=O)Cn3nc(C(F)(F)F)c4c3C(F)(F)[C@@H]3C[C@H]43)c(-c3ccc4c(c3)C(=O)NC4)cc2s1` [Compound 142, 2-((3bS,4aR)-5,5-difluoro-3-(trifluoromethyl)-3b,4,4a,5-tetrahydro-1H-cyclopropa[3,4]cyclopenta[1,2-c]pyrazol-1-yl)-N—((S)-2-(3,5-difluorophenyl)-1-(2-(methylthio)-6-(3-oxoisoindolin-5-yl)thiazolo[4,5-b]pyridin-5-yl)ethyl)acetamide], the midpoint of the response, the EC50, lay at 38.9 nM.

The compound `Cn1nc(NS(C)(=O)=O)c2cccc(-c3cc4sc(N5CCC(C)(O)CC5)nc4nc3C(Cc3cc(F)cc(F)c3)NC(=O)Cn3nc(C(F)(F)F)c4c3C(F)(F)[C@@H]3C[C@H]43)c21` (stereo partly drawn) [Example 124, 2-((3bS,4aR)-5,5-difluoro-3-(trifluoromethyl)-3b,4,4a,5-tetrahydro-1H-cyclopropa[3,4]cyclopenta[1,2-c]pyrazol-1-yl)-N-(2-(3,5-difluorophenyl)-1-(2-(4-hydroxy-4-methylpiperidin-1-yl)-6-(1-methyl-3-(methylsulfonamido)-1H-indazol-7-yl)thiazolo[4,5-b]pyridin-5-yl)ethyl)acetamide] registered an EC50 of 13.6 nM. This EC50 is about 2.9-fold lower than that of the compound before.

With `Cn1nc(NS(C)(=O)=O)c2cccc(-c3cc4sc(-c5cn[nH]c5)nc4nc3C(Cc3cc(F)cc(F)c3)NC(=O)Cn3nc(C(F)(F)F)c4c3C(F)(F)[C@@H]3C[C@H]43)c21` (stereo partly drawn) [Compound 132, 2-((3bS,4aR)-5,5-difluoro-3-(trifluoromethyl)-3b,4,4a,5-tetrahydro-1H-cyclopropa[3,4]cyclopenta[1,2-c]pyrazol-1-yl)-N-(2-(3,5-difluorophenyl)-1-(6-(1-methyl-3-(methylsulfonamido)-1H-indazol-7-yl)-2-(1H-pyrazol-4-yl)thiazolo[4,5-b]pyridin-5-yl)ethyl)acetamide], a half-maximal response (EC50) required 43.7 nM. Against the preceding compound, the EC50 is about 3.2-fold higher.

With `Cn1nc(NS(C)(=O)=O)c2cccc(-c3cc4sc(O)nc4nc3[C@H](Cc3cc(F)cc(F)c3)NC(=O)Cn3nc(C(F)(F)F)c4c3C(F)(F)[C@@H]3C[C@H]43)c21` [Example 113, 2-((3bS,4aR)-5,5-difluoro-3-(trifluoromethyl)-3b,4,4a,5-tetrahydro-1H-cyclopropa[3,4]cyclopenta[1,2-c]pyrazol-1-yl)-N—((S)-2-(3,5-difluorophenyl)-1-(2-hydroxy-6-(1-methyl-3-(methylsulfonamido)-1H-indazol-7-yl)thiazolo[4,5-b]pyridin-5-yl)ethyl)acetamide], the EC50 is 8.1 nM. This EC50 lies about 5.4-fold lower than the previous one.

Consider `Cc1cc(Nc2nc3nc(C(Cc4cc(F)cc(F)c4)NC(=O)Cn4nc(C(F)F)c5c4C(F)(F)CCC5(F)F)c(-c4ccc(F)c(C(N)=O)c4)cc3s2)[nH]n1` (stereo not drawn) [Compound 19, 5-(5-(1-(2-(3-(difluoromethyl)-4,4,7,7-tetrafluoro-4,5,6,7-tetrahydro-1H-indazol-1-yl)acetamido)-2-(3,5-difluorophenyl)ethyl)-2-((3-methyl-1H-pyrazol-5-yl)amino)thiazolo[4,5-b]pyridin-6-yl)-2-fluorobenzamide], for which the response was half-maximal at 1050 nM (EC50).
